Laboratory results reported in PMC9820082, “Synthesis of 9-Hydroxy-1H-Benzo[f]chromene Derivatives with Effective Cytotoxic Activity on MCF7/ADR, P-Glycoprotein Inhibitors, Cell Cycle Arrest and Apoptosis Effects” (International Journal of Molecular Sciences, 2022).

Legend:
[1] = system: HeLa (cervical cancer cell line); experiment: MTT colorimetric cytotoxicity assay, HeLa; type: cell-based, human; conditions: 24 h incubation, mean ± standard error
Protocol: (§1) Three human cancer cell lines, PC-3 (human prostate adenocarcinoma, metastatic), […], were used to test the anti-proliferative activity of β-enaminonitrile (4a–p) using the MTT colorimetric assay at concentrations ranging from 0–100 μM. The representative active cytotoxic substances 4a, 4c, 4d, 4e, 4g, 4i, 4k and 4o were also tested against two normal cell lines, human fetal lung (HFL-1) and human diploid fibroblasts (WI-38), as well as Adriamycin (ADR)-resistant human breast cancer cells (MCF-7/ADR). The reference cytotoxic agents, Vinblastine and Doxorubicin, were used in the tests.
(§2) The cytotoxic activity was appraised using the 3-(4,5-dimethylthiazol-2-yl)-2,5-diphenyltetrazolium bromide (MTT) colorimetric assay for the antitumor cell lines, as reported previously, and the ELISA assay for MCF-7/ADR [69].

[2] = system: SKOV-3 (ovarian cancer cell line); experiment: MTT colorimetric cytotoxicity assay, SKOV-3; type: cell-based, human; conditions: Homo sapiens, SK-OV-3, 24 h, 24 h incubation, mean ± standard error
Protocol: as §1, §2

[3] = system: PC-3 (human prostate adenocarcinoma, metastatic); experiment: MTT colorimetric cytotoxicity assay, PC-3; type: cell-based; conditions: Homo sapiens; MTT, 24 h incubation, mean ± standard error
Protocol: as §1
(§3) The tumor cell lines MCF-7, HepG-2, PC-3 MCF-7/ADR, HFL-1 and (WI-38) were obtained from the American Type Culture Collection (ATCC, Rockville, MD, USA). The cells were grown on RPMI-1640 medium supplemented with 10% inactivated fetal calf serum and 50 µg/mL gentamycin. The cells were maintained at 37 ^οC in a humidified atmosphere with 5% CO2 and were subcultured two to three times a week.
as §2

[4] = system: Adriamycin (ADR)-resistant human breast cancer cells (MCF-7/ADR); experiment: Cytotoxicity against MCF-7/ADR cells; type: cell-based; conditions: 24 h exposure, mean ± standard error
Protocol: as §1, §3, §2

MCF-7/ADR cells = experiment: Annexin V/PI double staining flow cytometric apoptosis test; type: cell-based, human; conditions: IC50 value, 24 h
Text: One of the optional mechanisms regarding the lethal action of chemotherapeutic medicines is blocking cell cycle progression, triggering apoptosis with otherwise mutual effect. […] The pivotal relation of the newly synthesized MCF-7/ADR “anticancer drugs” was further evaluated using the Annexin V/PI double staining flow cytometric test. […] In comparison to Doxorubicin’s 30% total apoptosis rate, which was nearly identical to 4a, 4c and 4g, compounds 4d, 4e and 4i were leading with percentages of 41%, 31% and 38%, respectively. Only compounds 4a (8.5%) and 4g (11%) had greater effects on necrosis compared to doxorubicin (5%). Other examined substances caused both early and late apoptosis in all treated cells (Figure 7b). Therefore, MCF-7/ADR cytotoxicity is induced by apoptotic processes, apparently without negative effects on P-gp.
(a) The dot plot of the Annexin V/PI-stained cells, treated with the indicated drugs. […] The data are expressed as the mean ± SD of three independent experiments in triplicate. Significances are shown in comparison to control cells (* p < 0.001). TEXT PRINTED IN THE PICTURE: (a) DOX.: 3.33%; 18.41%; 7.85% | (a) 4a: 8.66%; 18.17%; 4.24% | (a) 4c: 2.74%; 12.73%; 9.11% | (a) 4d: 4.85%; 27.44%; 8.73% | (a) 4e: 5.77%; 9.92%; 15.92% | (a) 4g: 11.04%; 3.94%; 7.38% | (a) 4i: 5.54%; 12.87%; 19.61% DOUBTS OF THE COPYIST ABOUT THIS PICTURE: The quadrant percentages in panel (a) are printed very small and blurred, so 3, 5, 6, 8 and 9 cannot be told apart with certainty. […] They are told apart only by their quadrant in the PI / Annexin V-FITC plot, and are listed upper left, upper right, lower right. / The sample line in each plot reads MCF7/ADR. In the 4g plot it is cut off as 'MCF7/AI'. / The panel 'Cont.' (untreated control: 1.56%, 0.15%, 0.48%) is left out because it is not a substance.

P-glycoprotein (P-gp) = experiment: P-gp content in MCF-7/ADR cell lysate (human P-gp ELISA kit); type: cell-based; conditions: human, MCF-7/ADR cells (cell lysate); MCF-7/ADR cell lysate, 48 h, ELISA
Protocol: P-glycoprotein (P-gp)-mediated multidrug resistance (MDR) is a phenomenon in which cells become resistant to structurally and mechanistically unrelated drugs, resulting in low intracellular drug concentrations. It is one of the noteworthy problems in malignant tumor clinical therapeutics.
The content of P-gp in the MCF-7/ADR cell lysates after incubation with varying conc. (12.5–100 µM) of tested compounds 4a, 4c, 4d, 4e, 4g and 4i following exposure for 48 hr was determined using a commercial human P-gp (Permeability Glycoprotein) ELISA Kit (MBS2506188, MyBioSource Inc., San Diego, CA, USA). Absorption was recorded at 450 nm with a Spectramax Gemini fluorescence microplate reader (Molecular Devices, Sunnyvale, CA, USA).

human fetal lung (HFL-1) = experiment: Cytotoxicity against normal cell line HFL-1; type: cell-based; conditions: Homo sapiens, HFL1, 24 h, 24 h incubation, mean ± standard error
Protocol: as §1, §3, §2

[5] = system: human diploid fibroblasts (WI-38); experiment: Cytotoxicity against normal cell line WI-38; type: cell-based; conditions: Homo sapiens, WI-38, 24 h, 24 h incubation, mean ± standard error
Protocol: as §1, §3, §2

[6] = Homo sapiens, NCI/ADR-RES, 24 h

| SMILES | IC50 ([1]; Homo sapiens, HeLa, 24 h) [µM] | melting point [°C] | IC50 [2] [µM] | IC50 [3] [µM] | IC50 [4, 6] [µM] | necrosis (MCF-7/ADR cells) [%] | IC50 at 48 h (P-glycoprotein (P-gp)) [µM] | IC50 [4] [µM] | IC50 (human fetal lung (HFL-1)) [µM] | IC50 [5] [µM] | IC50 [1] [µM] |
| --- | --- | --- | --- | --- | --- | --- | --- | --- | --- | --- | --- |
| COc1ccc(C2C(C#N)=C(N)Oc3ccc4ccc(O)cc4c32)c(OC)c1OC (stereo not shown) [4m, 3-Amino-1-(2,3,4-Trimethoxyphenyl)-9-Hydroxy-1H-Benzo[f]chromene-2-Carbonitrile] | 8.8 ± 0.5 | 265 to 266 | 3.4 ± 0.5 | 6.5 ± 1.3 |  |  |  |  |  |  |  |
| CC[C@]1(O)C[C@@H]2CN(CCc3c([nH]c4ccccc34)[C@@](C(=O)OC)(c3cc4c(cc3OC)N(C)[C@H]3[C@@](O)(C(=O)OC)[C@H](OC(C)=O)[C@]5(CC)C=CCN6CC[C@]43[C@@H]65)C2)C1 [Vinblastine, reference compound] | 5.7 ± 1.1 |  | 3.2 ± 1.2 | 7.5 ± 1.3 |  |  |  |  |  |  |  |
| N#CC1=C(N)Oc2ccc3ccc(O)cc3c2C1c1c(F)cccc1F (stereo not shown) [4b, 3-Amino-1-(2,6-Difluorophenyl)-9-Hydroxy-1H-Benzo[f]chromene-2-Carbonitrile] | 6.7 ± 0.2 | 193 to 194 | 2 ± 0.2 | 9.4 ± 0.5 |  |  |  |  |  |  |  |
| N#CC1=C(N)Oc2ccc3ccc(O)cc3c2C1c1c(Cl)cccc1Cl (stereo not shown) [4f, 3-Amino-1-(2,6-Dichlorophenyl)-9-Hydroxy-1H-Benzo[f]chromene-2-Carbonitrile] | 4.1 ± 0.3 | 196 to 197 | 7 ± 0.4 | 26.6 ± 3.1 |  |  |  |  |  |  |  |
| COc1ccc(C2C(C#N)=C(N)Oc3ccc4ccc(O)cc4c32)cc1OC (stereo not shown) [4l, 3-Amino-1-(3,4-Dimethoxyphenyl)-9-Hydroxy-1H-Benzo[f]chromene-2-Carbonitrile] | 5.3 ± 0.2 | 268 to 269 | 4 ± 1.3 | 4.1 ± 0.9 |  |  |  |  |  |  |  |
| N#CC1=C(N)Oc2ccc3ccc(O)cc3c2C1c1c(F)c(F)c(F)c(F)c1F (stereo not shown) [4p, 3-Amino-9-Hydroxy-1-(Perfluorophenyl)-1H-Benzo[f]chromene-2-Carbonitrile] | 3.9 ± 0.4 | 299 to 300 | 4.2 ± 0.3 | 4.5 ± 1.2 |  |  |  |  |  |  |  |
| COc1cc(OC)c(C2C(C#N)=C(N)Oc3ccc4ccc(O)cc4c32)cc1OC (stereo not shown) [4n, 3-Amino-1-(2,4,5-Trimethoxyphenyl)-9-Hydroxy-1H-Benzo[f]chromene-2-Carbonitrile] | 4.9 ± 0.5 | 235 to 236 | 2.4 ± 0.4 | 7.6 ± 1.2 |  |  |  |  |  |  |  |
| COc1cccc2c1C(=O)c1c(O)c3c(c(O)c1C2=O)C[C@@](O)(C(=O)CO)C[C@@H]3O[C@H]1C[C@H](N)[C@H](O)[C@H](C)O1 [Doxorubicin, reference compound] | 1.5 ± 0.3 |  | 1.1 ± 0.2 | 1.3 ± 0.3 | 18.6 ± 0.2 | 5 | 50.9 |  |  |  |  |
| COc1cccc(C2C(C#N)=C(N)Oc3ccc4ccc(O)cc4c32)c1O (stereo not shown) [4j, 3-Amino-1-(2-Hydroxy-3-Methoxyphenyl)-9-Hydroxy-1H-Benzo[f]chromene-2-Carbonitrile] | 50.4 ± 1.3 | 269 to 270 | 97.4 ± 0.8 | 33.5 ± 3.5 |  |  |  |  |  |  |  |
| N#CC1=C(N)Oc2ccc3ccc(O)cc3c2C1c1c(F)cccc1Cl (stereo not shown) [4h, 3-Amino-1-(2-Chloro-6-Flourophenyl)-9-Hydroxy-1H-Benzo[f]chromene-2-Carbonitrile] | 4.7 ± 0.5 | 298 to 299 | 3.1 ± 0.2 | 11.6 ± 0.8 |  |  |  |  |  |  |  |
| COc1cc(C2C(C#N)=C(N)Oc3ccc4ccc(O)cc4c32)cc(OC)c1OC (stereo not shown) [4o, 3-Amino-1-(3,4,5-Trimethoxyphenyl)-9-Hydroxy-1H-Benzo[f]chromene-2-Carbonitrile] | 5.7 ± 1.8 | 252 to 253 | 3.1 ± 0.1 | 2.1 ± 0.8 |  |  |  | 23.7 ± 0.4 | 22.2 ± 0.4 | 20.4 ± 0.3 |  |
| COc1ccc(C2C(C#N)=C(N)Oc3ccc4ccc(O)cc4c32)c(OC)c1 (stereo not shown) [4k, 3-Amino-1-(2,4-Dimethoxyphenyl)-9-Hydroxy-1H-Benzo[f]chromene-2-Carbonitrile] |  | 242 to 243 | 1.7 ± 0.3 | 3.7 ± 0.3 | 36.8 ± 0.2 |  |  |  | 24.2 ± 0.1 | 25.3 ± 1.3 | 6.7 ± 0.1 |
